Among the data in patent publication US20070197632A1, “Aminocyclohexyl ether compounds and uses thereof” (Cardiome Pharma Corp, priority 2003, published 2007) are convulsion dose and cum conv dose values, retold here.

Structures can show the parent of a compound that is named as a salt.

The subject of the series is conscious rats. Put plainly: Determination of CNS toxicity: convulsions in conscious rats under intravenous infusion. The settings on record: Table 5, comparative example compounds; for convulsion dose: minimum iv infusion rate at which partial or complete convulsions are observed; for cum conv dose: total amount of drug infused when convulsions are first observed.

`Cl.O=C1CCN([C@@H]2CCCCC2OCc2c(Cl)cccc2Cl)C1` (stereo partly drawn) [Comparative Example Compound 45, (1R,2R)/(1S,2S)-2-(3-ketopyrrolidinyl)-1-[(2,6-dichlorophenyl)methoxy]-cyclohexane monohydrochloride] registered a convulsion dose of 32 µmol/kg/min.

Consider `COc1ccc(CCOC2CCCC[C@H]2N2CCC(=O)C2)cc1OC.Cl` (stereo partly drawn) [Comparative Example Compound 18, 1-{(1R,2R)/(1S,2S)-2-[2-(3,4-dimethoxyphenyl)-ethoxy]cyclohexyl}-pyrrolidin-3-one hydrochloride], for which the convulsion dose was 32 µmol/kg/min. The compound `Brc1ccc(OCCO[C@H]2CCCCC2N2CCOCC2)cc1` (stereo partly drawn) [Comparative Example Compound 34, (1R,2R)/(1S,2S)-[2-(4-morpholinyl)-1-[2-(4-bromophenoxy)-ethoxy]]cyclohexane] yielded a cum conv dose of 83 µmol/kg. Turning to `c1ccc2cc(OCCO[C@H]3CCCCC3N3CCOCC3)ccc2c1` (stereo partly drawn) [Comparative Example Compound 33, (1R,2R)/(1S,2S)-[2-(4-morpholinyl)-1-[2-(2-naphthoxy)ethoxy]]-cyclohexane], the convulsion dose is 8 µmol/kg/min. Compound `Cl.Clc1cccc(Cl)c1CCOC1CCCC[C@H]1N1CCSC1` (stereo partly drawn) [Comparative Example Compound 48, (1R,2R)/(1S,2S)-2-(3-thiazolidinyl)-1-(2,6-dichlorophenethoxy)cyclo-hexane monohydrochloride] gave a convulsion dose of 43 µmol/kg/min.

Consider `Brc1ccccc1CCO[C@H]1CCCCC1N1CCOCC1` (stereo partly drawn) [Comparative Example Compound 39, (1R,2R)/(1S,2S)-[2-(4-morpholinyl)-1-(2-bromophenethoxy)]-cyclohexane], for which the convulsion dose amounted to 16 µmol/kg/min. The compound `Cl.O=C1CCN(C2CCCC[C@@H]2OCCc2c(Cl)cccc2Cl)C1` (stereo partly drawn) [Comparative Example Compound 41, (1R,2R)/(1S,2S)-2-(3-ketopyrrolidinyl)-1-(2,6-dichlorophenethoxy)cyclo-hexane monohydrochloride] came in with a convulsion dose of 32 µmol/kg/min and a cum conv dose of 190 µmol/kg. `Brc1ccc(CCO[C@H]2CCCCC2N2CCOCC2)cc1` (stereo partly shown) [Comparative Example Compound 32] came in with a convulsion dose of 12 µmol/kg/min and a cum conv dose of 91 µmol/kg. The corresponding values for `c1ccc2c(CCO[C@H]3CCCCC3N3CCOCC3)csc2c1` (stereo partly shown) [Comparative Example Compound 36] are 8 µmol/kg/min and 65 µmol/kg. `Clc1ccc(CCO[C@H]2CCCCC2N2CCOCC2)cc1Cl` (stereo partly drawn) [Comparative Example Compound 40, (1R,2R)/(1S,2S)-2-(4-morpholinyl)-1-(3,4-dichlorophenethoxy)cyclo-hexane]: the convulsion dose was determined as 16 µmol/kg/min. In the case of `Cl.O[C@@H]1CCN(C2CCCC[C@@H]2OCCc2ccccc2C(F)(F)F)C1` (stereo partly shown) [Comparative Example Compound 27], the convulsion dose is 16 µmol/kg/min. Consider `COc1ccc(CCOC2CCCC[C@H]2N2CCOCC2)cc1OC` (stereo partly shown) [Comparative Example Compound 9, hydrochloride], for which the convulsion dose was found to be 16 µmol/kg/min and the cum conv dose came to 113 µmol/kg. The corresponding values for `Cl.Clc1cccc(Cl)c1COC1CCCC[C@H]1N1CCOCC1` (stereo partly drawn) [Comparative Example Compound 44, (1R,2R)/(1S,2S)-2-(4-morpholinyl)-1-[(2,6-dichlorophenyl)methoxy]-cyclohexane monohydrochloride] are 16 µmol/kg/min and 97 µmol/kg.

Compound `COc1ccc(CCO[C@H]2CCCCC2N2CCOCC2)cc1OC` (stereo partly drawn) [Comparative Example Compound 35, (1R,2R)/(1S,2S)-[2-(4-morpholinyl)-1-(3,4-dimethoxy-phenethoxy)]-cyclohexane] gave a convulsion dose of 16 µmol/kg/min.
